Measurements as given in US20170112741A1, “AGENT FOR AMELIORATING SKIN SYMPTOM, HAIR GROWTH AGENT OR SLIMMING AGENT” (GOLDCREST MEDICINE INSTITUTE CO., LTD., priority 2014, published 2017).

Columns and labels:
Assay type in all cases: in vivo, human
senile plaques = assay: Change in 5 senile plaques on the back of both hands of patient A under orally administered cabergoline
Excerpt: To find out the pharmaceutical effect of orally administered cabergoline, a change in the symptom of 5 senile plaques occurring on the back of both hands of patient A was investigated for 10 weeks from Jun. 20, 2013 (Thursday) to Aug. 29, 2013 (Thursday).
Patient A was a person with prolactin-producing pituitary adenoma. Before the clinical test of the treatment, patient A had dark brown circle-like senile plaques, specifically, 3 plaques on the back of the left hand (long diameter 11 mm×short diameter 8 mm, long diameter 8 mm×short diameter 6 mm, and long diameter 7 mm×short diameter 5 mm) and 2 plaques on the back of the right hand (long diameter 10 mm×short diameter 8 mm and long diameter 7 mm×short diameter 6 mm).
According to the doctor's instruction, oral administration was performed twice/week, on Monday and Thursday, for the first 4 weeks (from June 20 to July 15), and the dose was 2 mg/4 weeks.
A total of 1 mg of cabergoline were orally administered by this 4-week administration (administration dates are as follows: July 18, July 25, August 1, and August 8).
The cabergoline administration on week 9 and week 10 was performed on August 15 (Thursday) and August 22 (Thursday).

moles [1] = assay: Effect of oral cabergoline on 10 moles of the femoral region of the right leg; conditions: Jan. 20, 2014, after 7 months oral cabergoline; for Color and shape of mole 1, upper part of side area / Color and shape of mole 2, lower part of side area: Jun. 20, 2013: Black rectangle
Description: 10 moles were present within an area having a width of 10 cm and a length of 8 cm extending from the outer side to the front side of the femoral region of the right leg. After 7 months, the state of those 10 moles was observed and the effect of oral administration of cabergoline was investigated.
For the first 4 weeks from […], one tablet (0.25 mg) of carbegoline was administered on Monday and Thursday. The total dose over the 4 weeks was 2 mg. For the following 26 weeks, one tablet of cabergoline was administered on every Thursday. The total dose of cabergoline over the 7-month treatment period was calculated to be 8.5 mg.

moles [2] = assay: Effect of oral administration on 4 moles on left ankle and 4 small moles around them; conditions: for Color and shape of mole No. 4, left ankle: Jun. 20, 2013: brown circular
Excerpt: On the part slightly above the left ankle, 4 black moles were observed. From a direction of the little toe of the left foot, there were 3 black circular moles having a similar diameter ranging from about 3.7 mm to about 4 mm, present almost in one line with an interval of 2.4 cm and 2.6 cm. […]
At a position 6 mm above the second mole, there was a red oval mole of 1 mm×1.7 mm. […]

head hair / bald area = assay: Hair growth on the head of patient A, photographs before and after oral cabergoline
Excerpt: According to the photograph (1) of patient A (FIG. 1) taken at a restaurant during travel in Shonai region of Yamagata Prefecture on Sep. 16, 2010, the head of patient A from the upper forehead to the crown was quite bald. Only a small amount of hair was left right above the forehead. Patient A was […] at the time of taking the photo. Since the cabergoline administration was started on Jun. 20, 2013, patient A was […] at that time, which was 2 years and 9 months after taking the photograph (1), and thus, aging further progressed so that the hair became thinner and the hair loss progressed.
The image of the occipital region of patient A taken from the back side on Sep. 16, 2010, is shown in the photograph (2) (FIG. 2).
In the period from Jun. 20, 2013 (Thursday) to Jul. 15, 2013 (Monday), one tablet of 0.25 mg cabergoline was orally administered twice per week, on Monday and Thursday, and thus a total of 2 mg of cabergoline was administered over one month. From July 18, the administration of cabergoline was changed from two tablets per week to one tablet per week. The total dose of cabergoline administered from Jul. 18, 2013 to Jan. 20, 2014 was about 6 mg, and thus, the total amount of cabergoline administered after the start of administration was calculated to be 8 mg.
Images of the frontal region and the occipital region of patient A taken on Feb. 27, 2014 are shown as photograph (3) (FIG. 3) and photograph (4) (FIG. 4), respectively.

[3] = listed as novel skin treatment agent
[4] = Jun. 20, 2013: Dark brown circle
[5] = Jan. 17, 2014 (after 210 days), listed as novel skin treatment agent
[6] = Jan. 17, 2014 (after 210 days), size 1.8 × 2.2 wrapped over two grid lines, Jun. 20, 2013: 3.9 mm
[7] = Mar. 20, 2014 (after 272 days), vague border, Jun. 20, 2013: black circular
[8] = Feb. 27, 2014 vs Sep. 16, 2010, oral cabergoline since Jun. 20, 2013

## C=CCN1C[C@H](C(=O)N(CCCN(C)C)C(=O)NCC)C[C@@H]2c3cccc4[nH]cc(c34)C[C@H]21 [cabergoline]
Senile plaques; August, 6 weeks after starting cabergoline administration
  color of the senile plaques: started to become lighter
Senile plaques; end of August, after 10 weeks oral cabergoline
  state of the senile plaques: clearly disappeared
Senile plaques; first 4 weeks (June 20 to July 15), oral twice/week, 2 mg/4 weeks, direct observation
  state of the 5 senile plaques: no change was recognized
Senile plaques; from end of August, previously flecked with pigmented macules and dry
  skin of the back of both hands: gradually started to become white and have lighter skin texture
Senile plaques; from mid-August, one tablet (0.25 mg)/week oral
  size of the senile plaques: started to show a tendency to shrink in size
Moles [1]
  Appearance of all 4 moles on the front area: turned into faint flesh colored, pigmented macules
  Diameter of the 2 light brown circular moles sandwiching the red moles of the middle area: 1 mm
  Diameter of the remaining 2 small front-area moles: 1 mm
  Size change of the front-area moles of 4.5 mm and 3 mm: hardly shrunk
  Color and shape of mole 1, upper part of side area: dark brown rectangular mole
  Color and shape of mole 2, lower part of side area: faded light brown oval mole with an unclear border
Moles [1]; Jun. 20, 2013: 3.3 × 3.1 Brown circle-like, cell continues: flesh color
  Appearance of mole 7, upper part of front area: Turned into weak pigmented macules having
Moles [1]; Jun. 20, 2013: 3.3 × 3.1 mm
  Size change of mole 7, upper part of front area: flesh color with almost no change in size
Moles [1]; [3]
  Color and shape of mole 1, upper part of side area: Dark brown rectangle
  Color and shape of mole 2, lower part of side area: Faint, light brown rectangle
Moles [1]; Jun. 20, 2013: Brown rectangle
  Color and shape of mole 4, central left part of middle area: Light red circle-like
Moles [1]; [4]
  Color and shape of mole 3, upper part of middle area: Faint, light brown circle
  Color and shape of mole 6, lower part of middle area: Dark brown circle
Moles [1]; Jun. 20, 2013: Dark brown oval
  Color and shape of mole 5, central right part of middle area: Red circle-like
Moles [2]; Dec. 4, 2013 (after 166 days), Jun. 20, 2013: black circular
  Color and shape of mole No. 1, left ankle: a red circular mole
Moles [2]; Dec. 4, 2013 (after 166 days), Jun. 20, 2013: black circular, diameter 3.7 mm
  Diameter of mole No. 1, left ankle: 1.2 mm. The color
Moles [2]; Dec. 4, 2013 (after 166 days)
  Color and shape of mole No. 4, left ankle: yellow-brown circular mole
Moles [2]; Dec. 4, 2013 (after 166 days), Jun. 20, 2013: brown circular mole of 2.0 × 1.8 mm
  Diameter of mole No. 4, left ankle: with a diameter of 1.0 mm,
Moles [2]; Dec. 4, 2013 (after 166 days), Jun. 20, 2013: diameter 1.5 mm
  Diameter of the 2 red moles among the small moles above mole No. 3: diameter of 0.5 mm.
Moles [2]; Dec. 4, 2013 (after 166 days), cell continues: brown rectangular mole, vague border, Jun. 20, 2013: black circular
  Color and shape of mole No. 3, left ankle: The mole shrunk to a blackish
Moles [2]; Dec. 4, 2013 (after 166 days), oval, vague border, Jun. 20, 2013: black circular
  Color of mole No. 2, left ankle: faded to light brown.
Moles [2]; Jan. 17, 2014 (after 210 days)
  State of the 3 small moles above mole No. 3: completely disappeared
  State of the small mole above mole No. 2: completely disappeared
  Color and shape of mole No. 4, left ankle: Light brown line-shaped
Moles [2]; Jan. 17, 2014 (after 210 days), Jun. 20, 2013: 3.7 mm
  Diameter of mole No. 1, left ankle: 1.0 mm.
Moles [2]; Jan. 17, 2014 (after 210 days), Jun. 20, 2013: black circular
  Color and shape of mole No. 1, left ankle: Red circular mole
Moles [2]; [5]
  State of the 3 small moles above mole No. 3: The upper 3 moles disappeared.
  State of the small mole above mole No. 2: The upper mole disappeared.
Moles [2]; [6]
  Length of mole No. 2, left ankle: 2.2 mm with a vague border.
  Width of mole No. 2, left ankle: 1.8 mm
Moles [2]; Jan. 17, 2014 (after 210 days), vague border, Jun. 20, 2013: black circular
  Color and shape of mole No. 2, left ankle: Light brown oval mole
Moles [2]; Mar. 20, 2014 (after 272 days), Jun. 20, 2013: 3.7 mm
  Diameter of mole No. 1, left ankle: 1 mm
Moles [2]; Mar. 20, 2014 (after 272 days), Jun. 20, 2013: 3.7 mm, listed as novel skin treatment agent
  Diameter of mole No. 1, left ankle: diameter of 1.0 mm.
Moles [2]; Mar. 20, 2014 (after 272 days), Jun. 20, 2013: 3.9 mm
  Diameter of mole No. 2, left ankle: 2 mm
Moles [2]; Mar. 20, 2014 (after 272 days), Jun. 20, 2013: 3.9 mm, listed as novel skin treatment agent
  Diameter of mole No. 2, left ankle: diameter of 2.0 mm with a vague
Moles [2]; Mar. 20, 2014 (after 272 days), Jun. 20, 2013: black circular
  Color and shape of mole No. 1, left ankle: red circular shape
Moles [2]; Mar. 20, 2014 (after 272 days), Jun. 20, 2013: black circular, listed as novel skin treatment agent
  Color and shape of mole No. 1, left ankle: Light red circular
Moles [2]; Mar. 20, 2014 (after 272 days), cell continues: shaped mole
  Color and shape of mole No. 4, left ankle: only a trace of a faint line shape was observed
Moles [2]; Mar. 20, 2014 (after 272 days), cell continues: shaped mole, listed as novel skin treatment agent
  Color and shape of mole No. 4, left ankle: Very light brown line-
Moles [2]; [7]
  Color and shape of mole No. 2, left ankle: pale light brown circular mole
  Color and shape of mole No. 3, left ankle: blackish brown color and an almost rectangular shape
Moles [2]; Mar. 20, 2014 (after 272 days), vague border, Jun. 20, 2013: black circular, listed as novel skin treatment agent
  Color and shape of mole No. 3, left ankle: Dark brown rectangular mole of
Head hair / bald area; [8]
  Bald area, frontal region of the head (photograph (3)): clearly reduced
  Bald area, region from the crown to the occipital region (photograph (4) vs (2)): the bald area was reduced
  Hairs in the region from the crown to the occipital region: hairs were increased
Head hair / bald area; Feb. 27, 2014 vs Sep. 16, 2010, oral cabergoline since Jun. 20, 2013, about 8 mg in total by Jan. 20, 2014
  Hair in the frontal region of the head (photograph (3)): short black hairs were found in the previously bald region
